Patent US4971968A, “Pyridazinone derivatives and salts thereof” (Mitsubishi Kasei Corporation, priority 1983, dated 1990)

Legend:
[1] = system: left atrium of guinea pig; assay: Effect on contraction of an isolated left atrium of the guinea pig; conditions: Cavia porcellus, read-out: Contraction of left atrium of guinea pig, increase; for activation at 30 µg/mL: 3 × 10^-5 g/ml; for activation at 10 µg/mL: 10^-5 g/ml
Method: 2. Effect on contraction of an isolated left atrium of the guinea pig
A left atrium was isolated from a male guinea pig with 200-300 g of body weight soon after striking on the back of its head. The mitral orifice was fixed to the bottom of an organ bath filled with 30 ml of Krebs-Henseleit solution maintained at 35° C. A gas mixture comprising 95% of O2 and 5% of CO2 was passed through the Krebs-Henseleit solution in the organ bath. Isometric tension was measured by connecting a left auricle of heart and a transducer by a yarn. A resting tension of 0.5 g was given to the atrium, which was then electrically driven with square pulses with duration of 1 msec and voltage of 1.5 times as much as threshold in the rate of 2 Hz via dipolar platinum electrodes.
After stabilizing the atrium for 30 minutes from its preparation, the compound dissolved in a solvent was added to the organ bath to measure its effect.

papillary muscle of dog = assay: Effect on contraction of an isolated and cross-circulated papillary muscle preparation of the dog; conditions: Canis lupus familiaris, read-out: Contraction of papillary muscle of dog, increase; for activation at 0.03 mg: 30 μg i.a.; for activation at 0.01 mg: 10 μg i.a.
Method: 1. Effect on contraction of an isolated and cross-circulated papillary muscle preparation of the dog
An isolated and cross-circulated papillary muscle preparation of the dog was prepared by Endo and Hashimoto's method (referred to American Journal of Physiology, 218, 1459-1463, 1970). The effect of the compound was measured by closely intraarterially injecting the compound dissolved in a solvent to the papillary muscle for the purpose of recording its effect on contraction of papillary muscle.

Anesthetized dog = assay: Effects on myocardial contraction in anesthetized dogs; type: in vivo, dog (male and female mongrel dogs); conditions: for Anesthetized dog, CO (cardiac output) increase: aortic blood flow as index
Method: 3. Effects on myocardial contraction in anesthetized dogs
Male and female mongrel dogs with body weight of 8-15 kg were used. A dog was anesthetized by intraveneous injection of 30 mg/kg of sodium pentobarbital and practiced artificial respiration. The dog was thoractomized between fourth and fifth costa which was cut off. The pericardium was incised to expose heart. Blood flow through the aorta, which was measured with an electromagnetic blood flowmeter whose probe was attached to the ascending aorta, was used as an approximate index of cardiac output (CO). Left ventricular pressure (LVP) was measured with a Miller Catheter-tip pressure transducer and the first derivative of the LVP (dP/dt) was measured with a differentiater. Contraction of right ventricular muscle (Cont) was determined with a strain-gauge attached to the wall. Systemic blood pressure was measured from the left femoral artery. Heart rate was measured with electrocardiogram (lead II) and a cardiotachometer. The compound dissolved in a solvent was administered intravenously from a left femoral vein.

[2] = Acute toxicity (LD50) for intravenous and oral administration in male mice; conditions: mouse, in vivo
Method: Acute toxicity (LD50) for intravenous and oral administration in male mice was determined by the method of […] and Wilcoxon (referred to Journal of Pharmacology and Experimental Therapeutics, 96, 99-113, 1949).

SMILES | activation at 30 µg/mL [1] [%] | activation at 10 µg/mL [1] [%] | activation at 0.03 mg (papillary muscle of dog) [%] | activation at 0.1 mg (papillary muscle of dog; 100 μg i.a.) [%] | Anesthetized dog, Cont (contraction of right ventricular muscle) increase (Anesthetized dog; 10 μg/kg i.v.) [%] | Anesthetized dog, dP/dt max increase (Anesthetized dog; 10 μg/kg i.v.) [%] | Anesthetized dog, CO (cardiac output) increase (Anesthetized dog; 10 μg/kg i.v.) [%] | Anesthetized dog, Cont (contraction of right ventricular muscle) increase (Anesthetized dog; 30 μg/kg i.v.) [%] | Anesthetized dog, dP/dt max increase (Anesthetized dog; 30 μg/kg i.v.) [%] | Anesthetized dog, CO (cardiac output) increase (Anesthetized dog; 30 μg/kg i.v.) [%] | activation at 0.01 mg (papillary muscle of dog) [%] | LD50 ([2]; iv) [mg/kg] | LD50 ([2]; po) [mg/kg] | Anesthetized dog, Cont (contraction of right ventricular muscle) increase (Anesthetized dog; 100 μg/kg i.v.) [%] | Anesthetized dog, dP/dt max increase (Anesthetized dog; 100 μg/kg i.v.) [%] | Anesthetized dog, CO (cardiac output) increase (Anesthetized dog; 100 μg/kg i.v.) [%] | Anesthetized dog, Cont (contraction of right ventricular muscle) increase (Anesthetized dog; 3 μg/kg i.v.) [%] | Anesthetized dog, dP/dt max increase (Anesthetized dog; 3 μg/kg i.v.) [%] | Anesthetized dog, CO (cardiac output) increase (Anesthetized dog; 3 μg/kg i.v.) [%] | activation at 0.003 mg (papillary muscle of dog; 3 μg i.a.) [%]
O=C1CCC(c2ccc(Nc3ncccn3)cc2)=NN1 [6-[4-(2'-pyrimidinyl)aminophenyl]-4,5-dihydro-3(2H)-pyridazinone] | 66 | 42 | 5.7 | 15.9 |  |  |  |  |  |  |  |  |  |  |  |  |  |  |  | 
O=C1CCC(c2ccc(Nc3ccncc3)cc2)=NN1 [6-[4-(4'-pyridyl)aminophenyl]-4,5-dihydro-3(2H)-pyridazinone] | 138 | 115 | 15.4 |  | 23 | 45 | 13 | 57 | 93 | 28 | 13.2 | 97 | 341 |  |  |  |  |  |  | 
CC1CC(c2ccc(Nc3ccncc3)cc2)=NNC1=O (stereo not drawn) [6-[4-(4'-pyridyl)aminophenyl]-4-methyl-4,5-dihydro-3(2H)pyridazinone] | 109 | 85.9 | 50 |  |  |  |  | 21.6 | 29.1 | 8.6 | 22.6 |  |  | 64.0 | 64.7 | 26.7 |  |  |  | 
CC1CC(=O)NN=C1c1ccc(Nc2ccncc2)cc1 (stereo not drawn) [6-[4-(4'-pyridyl)aminophenyl]-5-methyl-4,5-dihydro-3(2H)pyridazinone] | 97.9 | 86.6 |  |  | 75.9 | 73.8 | 26.7 |  |  |  | 38.7 |  |  |  |  |  | 13.3 | 14.4 | 14.4 | 28.6
